± gives the expanded uncertainty stated by the source. Each block holds one compound with its values, some of them ahead of it.
Conditions: Liquid; for vapor or sublimation pressure: Ebulliometric method (Recirculating still)

vapor or sublimation pressure (441.8 K): 40 ± 0.34 kPa
Compound: CN1CCCC1=O [N-methylpyrrolidone]

vapor or sublimation pressure (427.2 K): 40 ± 0.34 kPa
Compound: CCCCC(CC)CO (centres undefined) [2-ethyl-1-hexanol]

vapor or sublimation pressure (371.05 K): 9.9 ± 0.2 kPa | vapor or sublimation pressure (375.35 K): 11.7 ± 0.2 kPa | vapor or sublimation pressure (385.85 K): 17.1 ± 0.2 kPa | vapor or sublimation pressure (394.25 K): 22.8 ± 0.2 kPa | vapor or sublimation pressure (399.5 K): 27.1 ± 0.2 kPa | vapor or sublimation pressure (403.5 K): 30.8 ± 0.2 kPa | vapor or sublimation pressure (405.85 K): 33.2 ± 0.2 kPa | vapor or sublimation pressure (411.9 K): 39.9 ± 0.2 kPa | vapor or sublimation pressure (412.05 K): 40 ± 0.2 kPa | vapor or sublimation pressure (419.05 K): 49.4 ± 0.3 kPa | vapor or sublimation pressure (425.2 K): 59 ± 0.3 kPa | vapor or sublimation pressure (431.15 K): 69.6 ± 0.3 kPa | vapor or sublimation pressure (436.65 K): 80.7 ± 0.3 kPa | vapor or sublimation pressure (441.45 K): 91.6 ± 0.3 kPa | vapor or sublimation pressure (445.4 K): 101.3 ± 0.3 kPa | Normal boiling temperature (Equilibrium Still): 172.2 ± 0.2 °C
Compound: CCCCC(CC)CCl (centres undefined) [1-chloro-2-ethylhexane]

Compound: Cc1ccc(C)cc1 [1,4-dimethylbenzene]
vapor or sublimation pressure (379.85 K): 40 ± 0.34 kPa
